# Reference: patent publication US4902690A, “Pest controlling compositions” (The General Hospital Corporation, priority 1988, dated 1990)
# Where “and” joins values, the source holds several entries; their conditions need not be identical. Identical values can stand only once. Like-named read-outs stand apart in the source and are kept apart here.
# Columns and labels:
# [1] = tested on: octopamine-sensitive adenylate cyclase (firefly lantern octopamine receptor); assay: Octopamine-sensitive adenylate cyclase activation, firefly light organ broken cell preparation; type: biochemical, firefly (Photinus pyralis); settings: for Ka ratio / Vmax: FIG. 1, formamidines; for Vmax: % of octopamine
# [2] = tested on: tobacco hornworms (Manducca sexta); assay: In vivo leaf test (feeding on sprayed tomato leaves); settings: for effect of adding IBMX on antifeeding / pesticidal activity of the compound: IBMX 0.1%, FIGS. 9, 10, 17, Tables 4, 7, 8, FIG. 9 at 72 hours
# Manducca eggs = assay: Ovacidal test (eggs dipped in drug solutions); type: in vivo, Manducca sexta
# Method: In some cases, test agents were tested for ovacidal activity by dipping groups of 10-50 Manducca eggs in drug solutions for 60 seconds and then determining the percentage of eggs which produced viable larvae. A compound or synergist with active ovacidal activity was one which decreased the percentage of eggs hatched, relative to control.
# [3] = Table 2, clonidines, N.A. = no activity
# [4] = Table 1, phenylethylamines, >1 = better than (±)-p-octopamine
# [5] = Table 1, phenylethylamines, maximal activation as % of that by (±)-p-octopamine, N.A. = No Activity
# [6] = Table 2, inhibitory properties at the octopamine receptor
# [7] = agonist 1 gm/100 ml + PDE Inhibitor IBMX 0.1 g/100 ml
# [8] = agonist 1 gm/100 ml, No PDE Inhibitor
# [9] = agonist 10^-1 gm/100 ml + PDE Inhibitor IBMX 0.1 g/100 ml
# [10] = agonist 10^-1 gm/100 ml, No PDE Inhibitor
# [11] = agonist 10^-2 gm/100 ml + PDE Inhibitor IBMX 0.1 g/100 ml
# [12] = agonist 10^-2 gm/100 ml, No PDE Inhibitor
# [13] = agonist 10^-3 gm/100 ml + PDE Inhibitor IBMX 0.1 g/100 ml
# [14] = agonist 10^-3 gm/100 ml, No PDE Inhibitor
# [15] = agonist 10^-4 gm/100 ml + PDE Inhibitor IBMX 0.1 g/100 ml
# [16] = agonist 10^-4 gm/100 ml, No PDE Inhibitor
# [17] = agonist 1 gm/100 ml + IBMX 0.1 g/100 ml
# [18] = agonist 10^-1 gm/100 ml + IBMX 0.1 g/100 ml
# [19] = agonist 10^-2 gm/100 ml + IBMX 0.1 g/100 ml
# [20] = agonist 0.3 (3 × 10^-1) gm/100 ml + PDE Inhibitor IBMX 0.1 g/100 ml
# [21] = agonist 0.3 (3 × 10^-1) gm/100 ml, No PDE Inhibitor
compound,measurement,setting,value
Cc1cccc(C)c1N=C1NCCN1 [NC 4],Ka^oct /Ka^B ratio,[1]; [3],0.41
NCCc1ccccc1 [β-phenylethylamine],Ka^oct /Ka^B ratio,[1]; [4],0.03
same,Vmax (% OCT),[1]; [5],13 ± 2 % OCT
Clc1ccc(Cl)c(N=C2NCCN2)c1 [NC 2],Ka^oct /Ka^B ratio,[1]; [3],1.1
same,Ki,[1]; [6],23 µM
NC[C@H](O)c1ccc(O)cc1 [(-)-p-octopamine],Vmax (% OCT),[1]; [5],101 ± 2 % OCT
CNCCc1ccc(O)c(O)c1 [Nmethyldopamine],Ka^oct /Ka^B ratio,[1]; [4],0.19
same,Vmax (% OCT),[1]; [5],11 ± 1 % OCT
CC(N)C(O)c1ccc(O)cc1 (racemic) [(±)-α-methyloctopamine],Ka^oct /Ka^B ratio,[1]; [4],0.05
same,Vmax (% OCT),[1]; [5],44 ± 2 % OCT
NCC(O)c1ccc(O)c(Cl)c1 (stereo not shown) [m-chloro-octopamine],Ka^oct /Ka^B ratio,[1]; [4],0.28
same,Vmax (% OCT),[1]; [5],77 ± 1 % OCT
NCC(O)c1cccc(O)c1 (racemic) [(±)-m-octopamine],effect of adding IBMX on antifeeding / pesticidal activity of the compound,[2],failed to increase pesticidal activity
same,Ka^oct /Ka^B ratio,[1]; [4],0.1
same,Vmax (% OCT),[1]; [5],9 ± 1 % OCT
CNC[C@H](O)c1ccc(O)c(O)c1 [(-)-epinephrine],Ka^oct /Ka^B ratio,[1],0.20
same,Vmax (% OCT),[1]; light organ homogenate,75 ± 2 % OCT
Cc1cc(C)c(N=C2NCCN2)c(C)c1 [NC 13],Ka^oct /Ka^B ratio,[1]; [3],4.3
"NCC(O)c1ccc(Cl)cc1Cl (stereo not shown) [2,4-dichlorophenylethanolamine]",% Leaf Remaining,[2]; [7],80%
same,% Leaf Remaining,[2]; [8],10%
same,% Leaf Remaining,[2]; [9],50%
same,% Leaf Remaining,[2]; [10],< 5%
same,% Leaf Remaining,[2]; [11],30%
same,% Leaf Remaining,[2]; [12],< 5%
"CN(C)CC(O)c1ccc(O)cc1 (racemic) [(±)-N,Ndimethyloctopamine]",Ka^oct /Ka^B ratio,[1]; [4],0.9
same,Vmax (% OCT),[1]; [5],43 ± 4 % OCT
NC[C@H](O)c1ccc(O)c(O)c1 [(-)-nonrepinephrine],Ka^oct /Ka^B ratio,[1]; [4],0.13
same,Vmax (% OCT),[1]; [5],72 ± 1 % OCT
COc1cc(C(O)CN)ccc1O (racemic) [(±)-normetanephrine],Ka^oct /Ka^B ratio,[1]; [4],0.07
same,Vmax (% OCT),[1]; [5],68 ± 2 % OCT
CN(C)c1cc(Cl)c(N=C2NCCN2)c(Cl)c1 [NC 15],Ka^oct /Ka^B ratio,[1]; [3],1.9
"Cc1cc(Cl)ccc1N=CN(C)C [CDM, chlordimeform]",% Leaf Remaining,[2]; [7],90%
same,% Leaf Remaining,[2]; [8],90%
same,% Leaf Remaining,[2]; [9],90%
same,% Leaf Remaining,[2]; [10],70%
same,% Leaf Remaining,[2]; [11],85%
same,% Leaf Remaining,[2]; [12],< 5%
same,% Leaf Remaining,[2]; [13],65%
same,% Leaf Remaining,[2]; [14],< 5%
same,% Leaf Remaining,[2]; [15],50%
same,% Leaf Remaining,[2]; [16],< 5%
same,Ka ratio,[1],0.5
same,Vmax,[1],about 10%
same,% Living Larvae,Manducca eggs; [17],2%
same,% Living Larvae,Manducca eggs; [8],2%
same,% Living Larvae,Manducca eggs; [18],10%
same,% Living Larvae,Manducca eggs; [10],25%
same,% Living Larvae,Manducca eggs; [19],10%
same,% Living Larvae,Manducca eggs; [12],60%
NCCc1ccc(O)cc1 [tyramine],Ka^oct /Ka^B ratio,[1]; [4],0.15
same,Vmax (% OCT),[1]; [5],57 ± 1 % OCT
CCc1cccc(CC)c1N=C1NCCN1 [NC 5],effect of adding IBMX on antifeeding / pesticidal activity of the compound,[2],substantial increases in the potency
same,% Leaf Remaining,[2]; [20],70%
same,% Leaf Remaining,[2]; [21],40%
same,% Leaf Remaining,[2]; [9],45%
same,% Leaf Remaining,[2]; [10],30%
same,% Leaf Remaining,[2]; [11],30%
same,% Leaf Remaining,[2]; [12],15%
same,% Leaf Remaining,[2]; [13],17%
same,% Leaf Remaining,[2]; [14],10%
same,Ka^oct /Ka^B ratio,[1]; [3],19.0 and ~20
CN(CCCl)c1cc(Cl)c(N=C2NCCN2)c(Cl)c1 [NC 16],Ki,[1],10 µM
same,Ka^oct /Ka^B ratio,[1]; [3],4.8
"CNC=Nc1ccc(Cl)cc1C [DCDM, mono-demethylchlordimeform]",% Leaf Remaining,[2]; [11],98%
same,% Leaf Remaining,[2]; [12],95%
same,% Leaf Remaining,[2]; [13],90%
same,% Leaf Remaining,[2]; [14],45%
same,% Leaf Remaining,[2]; [15],75%
same,% Leaf Remaining,[2]; [16],< 5%
same,more potent than DDCDM against the octopamine receptor,[1],50%
same,Ka ratio,[1],6
same,Vmax,[1],76%
same,% Living Larvae,Manducca eggs; [17],2%
same,% Living Larvae,Manducca eggs; [8],2%
same,% Living Larvae,Manducca eggs; [18],3%
same,% Living Larvae,Manducca eggs; [10],50%
same,% Living Larvae,Manducca eggs; [19],10%
same,% Living Larvae,Manducca eggs; [12],50%
CNC[C@H](O)c1cccc(O)c1 [(-)-phenylephrine],Ka^oct /Ka^B ratio,[1]; [4],< 0.2
same,Vmax (% OCT),[1]; [5],17 ± 1 % OCT
c1ccc(N=C2NCCN2)cc1 [NC 10],antifeeding activity of the compound by itself,"[2]; FIGS. 10, 13, 17, Table 8",inactive in vivo
same,effect of adding IBMX on antifeeding / pesticidal activity of the compound,[2],not synergized by the PDE inhibitor
same,% Leaf Remaining,[2]; [7],15%
same,% Leaf Remaining,[2]; [8],5%
same,% Leaf Remaining,[2]; [9],13%
same,% Leaf Remaining,[2]; [10],5%
same,% Leaf Remaining,[2]; [11],15%
same,% Leaf Remaining,[2]; [12],5%
same,% Leaf Remaining,[2]; [13],12%
same,% Leaf Remaining,[2]; [14],5%
same,Ki,[1]; [6],190 µM
NCC(O)c1ccc(F)cc1 (stereo not shown) [p-fluoro-phenylethanolamine],% Leaf Remaining,[2]; [20],95%
same,% Leaf Remaining,[2]; [21],25%
same,% Leaf Remaining,[2]; [9],98%
same,% Leaf Remaining,[2]; [11],80%
same,% Leaf Remaining,[2]; [13],50%
same,% Leaf Remaining,[2]; [14],< 5%
"Nc1ncnc2c1nc(Sc1ccc(Cl)cc1)n2[C@@H]1O[C@@H]2COP(=O)(O)O[C@H]2[C@H]1O [p-Cl-phenylthio cyclic AMP, 8-p-chlorophenylthio-cyclic AMP]",antifeeding activity in the absence of IBMX,"[2]; concentration of 1%, FIGS. 18, 19",some antifeeding activity
CC(C)NC[C@H](O)c1ccc(O)c(O)c1 [(-)-isoproterenol],Vmax (% OCT),[1]; [5],19 ± 1 % OCT
NCCc1ccc(O)c(O)c1 [dopamine],Ka^oct /Ka^B ratio,[1]; [4],0.26
same,Vmax (% OCT),[1]; [5],4 ± 1 % OCT
Brc1cccc(Br)c1N=C1NCCN1 [NC 6],Ka^oct /Ka^B ratio,[1]; [3],2.1
Nc1cc(Cl)c(N=C2NCCN2)c(Cl)c1 [NC 14],Ka^oct /Ka^B ratio,[1]; [3],0.7
same,Ki,[1]; [6],440 µM
CC(N)Cc1ccc(O)cc1 (racemic) [(±)-p-hydroxyamphetamine],Ka^oct /Ka^B ratio,[1]; [4],< 0.05
same,Vmax (% OCT),[1]; [5],8 ± 3 % OCT
C[C@H](N)[C@H](O)c1ccccc1 (relative stereo) [(±)-norephedrine],Ka^oct /Ka^B ratio,[1]; [4],< 0.09
same,Vmax (% OCT),[1]; [5],8 ± 1 % OCT
Cc1ccc(N=C2NCCN2)c(C)c1 [NC 9],Ka^oct /Ka^B ratio,[1]; [3],5.1
COc1ccc(CCN)cc1 [p-methoxphenylethylamine],Ka^oct /Ka^B ratio,[1]; [4],0.10
same,Vmax (% OCT),[1]; [5],6 ± 3 % OCT
Clc1ccc(N=C2NCCN2)c(Cl)c1 [NC 8],Ka^oct /Ka^B ratio,[1]; [3],3.7
CNCC(O)c1ccc(O)cc1 (racemic) [(±)-Nmethyloctopamine],% Leaf Remaining,[2]; [7],90%
same,% Leaf Remaining,[2]; [8],30%
same,% Leaf Remaining,[2]; [9],55%
same,% Leaf Remaining,[2]; [10],< 5%
same,% Leaf Remaining,[2]; [11],42%
same,% Leaf Remaining,[2]; [12],< 5%
same,Ka^oct /Ka^B ratio,[1]; [4],1.8
same,Vmax (% OCT),[1]; [5],108 ± 10 % OCT
NCC(O)c1ccccc1O (racemic) [(±)-o-octopamine],Ka^oct /Ka^B ratio,[1]; [4],0.05
same,Vmax (% OCT),[1]; [5],23 ± 1 % OCT
Clc1cc(Cl)c(N=C2NCCN2)c(Cl)c1 [NC 11],Ka^oct /Ka^B ratio,[1]; [3],1.9
Clc1cc(Cl)c(N=C2NCCN2)cc1Cl [NC 3],Ka^oct /Ka^B ratio,[1]; [3],2.8
CNC(C)C(O)c1ccc(O)cc1 (racemic) [(±)-α-methylsynephrine],Ka^oct /Ka^B ratio,[1]; [4],< 0.01
same,Vmax (% OCT),[1]; [5],7 ± 2 % OCT
Brc1ccc(N=C2NCCN2)cc1 [NC 12],Ka^oct /Ka^B ratio,[1]; [3],3.0
Clc1cccc(Cl)c1N=C1NCCN1 [clonidine],effect of adding IBMX on antifeeding / pesticidal activity of the compound,[2],substantial increases in the potency
same,% Leaf Remaining,[2]; [7],63%
same,% Leaf Remaining,[2]; [8],65%
same,% Leaf Remaining,[2]; [9],55%
same,% Leaf Remaining,[2]; [10],20%
same,% Leaf Remaining,[2]; [11],55%
same,% Leaf Remaining,[2]; [12],5%
same,Ka^oct /Ka^B ratio,[1],0.95
same,Ki,[1],20 µM
